Test results reported in patent US20240165226A1, “COMBINATION TREATMENT OF CD38-EXPRESSING TUMORS” (GENMAB A/S, priority 2006, published 2024).

B1: -024: human monoclonal IgG1 anti-CD38 antibody, VL region SEQ ID No:22 and VH region SEQ ID No:27 (antibody, listed as Homo sapiens, V domains shown)
VH: EVQLVQSGAEVKKPGESLKISCKGSGYSFSNYWIGWVRQMPGKGLEWMGIIYPHDSDARYSPSFQGQVTFSADKSISTAYLQWSSLKASDTAMYYCARHVGWGSRYWYFDLWGRGTLVTVSS
VL: EIVLTQSPATLSLSPGERATLSCRASQSVSSYLAWYQQKPGQAPGLLIYDASNRASGIPARFSGSGSGTDFTLTISSLEPEDFAVYYCQQRSNWPLTFGGGTKVEIK

Key:
[1] = tested on: AMO-1 (a multiple myeloma cell line); test: ADCC set up II, AMO-1 cells; type: cell-based; details: CD38 expression is low
Procedure: (§1) Human blood from human volunteers (university Erlangen, Erlangen, Germany) was diluted twice in RPMI 1640 and blood cells were layered on Ficoll (Lymphocyte Separation Medium […], 710 g, RT, 20 min; BioWhittaker, Cambrex Bio Science Verviers, Verviers, Belgium, cat. 17-829E, lot no. 0148 32). Peripheral blood mononuclear cells (MNCs) were collected from the interphase, washed and resuspended in RPMI 1640 culture medium supplemented with 10% FCS, 2 mM L-glutamine, 5 U/ml penicillin, 50 μg/ml streptomycin (all derived from BioWhittaker) to which 25 mM HEPES (BioWhittaker) was added.
(§2) Target B-cells (fresh plasma cell leukemia tumor cells, JK6L and AMO-1 B-cell lines, obtained from Dr. T. Valerius, University of Erlangen, Erlangen, Germany) were labeled with 20 μCi ^51Cr (Amersham Biosciences, Uppsala, Sweden) for 2 hours. After extensive washing in RPMI-10, cells were adjusted to 1×10^5 cells/ml. […] After incubation (3 hr, 37° C.), assays were stopped by centrifugation, and 51Cr release from triplicates was measured in counts per minute (cpm) in a scintillation counter. Percentage of cellular cytotoxicity was calculated using the following formula: […]
(§3) with maximal ^51Cr release determined by adding perchloric acid (3% final concentration) to target cells, and basal release was measured in the absence of sensitizing antibodies and effector cells.

PBMCs [2] = test: Induction of proliferation of PBMC; type: cell-based, human; details: 1.1-30 μg/ml, 3H-thymidine incorporation, 10 donors
Procedure: -003, -005 and -024 were tested in an assay essentially as described in Ausiello et al., Tissue antigens 56, 538-547 (2000). Briefly, PBMCs from healthy donors were cultured at 1×10^5 cells/well in flat bottom 96-well plates in the presence of antibodies (final concentration: 1.1-3.3-10-30 μg/ml) in 200 μl RPMI^++. Stimulation of cells with IL-15 (at 333 ng/ml; Amgen Inc., Thousand Oaks, CA, USA) was used as positive control. After a 4 day incubation at 37° C., 30 μl ^3H-thymidine (16.7 μCi/ml) was added, and culture was continued O/N. ^3H-thymidine incorporation was assessed using a […] (Packard Instruments, Meriden, DT, USA), according to the manufacturer's instructions. Data are shown as the mean cpm (±SEM) of PBMCs obtained from 10 donors.

[3] = tested on: tumor cells obtained from different MM patients; test: Complement-dependent cytotoxicity of tumor cells from MM patients; type: cell-based, human; details: in words
[4] = tested on: EBV transformed chimpanzee B cells; test: Binding to EBV transformed chimpanzee B cells by flow cytometry; details: FITC-labeled antibody
Procedure: After harvesting and counting, EBV transformed chimpanzee B cells (received from Biomedical Primate Research Centre, Department Immunobiology, Rijswijk, The Netherlands) were resuspended (1×10^6 cells/ml) in PBS-BSA (PBS supplemented with 0.1% BSA and 0.02% Na-azide). Then, cells were put in 96-well V-bottom plates (100 μl/well) and washed twice in PBS-BSA. Thereafter, 50 μl FITC-labeled -005 antibody solution in PBS-BSA was added to the cells (4° C., 30 min). Cells were washed three times and specific binding of -005 to EBV transformed chimpanzee B cells was detected by flow cytometry. FITC labeled HuMab-KLH (a human monoclonal antibody against KLH (keyhole limpet haemocyanin) generated by Genmab B.V., Utrecht, The Netherlands by use of the immunization protocols described elsewhere herein) was used as a control.

[5] = tested on: JK6L (a multiple myeloma cell line); test: ADCC set up II, JK6L cells; type: cell-based; details: in words
Procedure: as §1, §2, §3

[6] = tested on: fresh plasma cell leukemia tumor cells; test: ADCC set up II, plasma cell leukemia tumor cells; type: cell-based, human; details: in words
Procedure: as §1, §2, §3

PBMCs [7] = test: Induction of release of IFN-γ by PBMC; type: cell-based, human; details: 20 μg/ml antibody and 1 μg/ml OKT-3, 9 donors
Procedure: -003, -005 and -024 were tested in an assay as described in Ausiello et al., Tissue antigens 56, 538-547 (2000). Briefly, PBMCs were cultured at 1×10^6 cells/well in 48-well plates in the presence of 20 μg/ml of antibodies and 1 μg/ml OKT-3 (Sanquin, Amsterdam, The Netherlands) in 500 μl RPMI^++. After an O/N incubation at 37° C., supernatant was harvested and stored at −20° C. The IFN-γ concentration was assessed by ELISA (IFN-γ ELISA kit, U-CyTech Biosciences, Utrecht, The Netherlands) according to the manufacturer's instructions. Data are shown mean concentration in pg/ml (±SEM) from 9 donors.

[8] = tested on: luciferase-transfected Daudi cells; test: Annexin-V apoptosis assay; type: cell-based; details: 5 μg/ml
Procedure: Apoptosis assay was carried out according to the manufacturer's instructions (Annexin-V Apoptosis kit, BD Biosciences, Alphen a.d. Rijn, Netherlands). In short, CD38 mAbs were added to 2.5×10^5 cells (luciferase-transfected Daudi cells, in 0.5 ml RPMI^++ in a 24-wells plate), in a concentration of 5 μg/ml -003 or -005 or an anti-CD20 antibodies alone or in the presence of cross-blocking rb-anti-hIgG (50 μg/ml).
After incubation (37° C., 5% CO2, 20 hr), cells were harvested carefully, and washed with Binding Buffer (1200 rpm, 4° C., 5 min, BD Biosciences). Pellet was resuspended in 100 μl Binding Buffer. Then, 5 μl Annexin-V-FITC (BD Biosciences) and 10 μl PI (BD Biosciences) was added to the suspension and incubated for 15 minutes at RT. 400 μl Binding Buffer was added and the samples were measured (PI readout in FL2). For analysis of apoptotic cells, all Annexin-V-positive cells were counted by flow cytometry using a FACScalibur flow cytometer with CellQuest pro software (BD Biosciences). At least 10,000 events were collected for analysis. This population includes both PI-positive as well as PI-negative cells.

Molecule	lysis of AMO-1 by ADCC [1]	proliferation of PBMCs (PBMCs [2])	CDC-mediated lysis of MM patient tumor cells [3]	binding to EBV transformed chimpanzee B cells [4]	lysis of JK6L by ADCC [5]	ADCC of plasma cell leukemia primary tumor cells [6]	release of IFN-γ (PBMCs [7])	induction of apoptosis ([8]; after cross-linking with rb-anti-hIgG (50 μg/ml))	induction of apoptosis ([8]; without cross-linking)
-005: human monoclonal IgG1 anti-CD38 antibody, VL region SEQ ID No:12 and VH region SEQ ID No:17	lysis is induced	do not induce significant proliferation	CDC-mediated lysis is observed	dose dependent binding	lysis is induced	induce ADCC	does not induce release of detectable IFN-γ levels	less able to induce apoptosis	do not induce apoptosis
B1	–	did not induce significant proliferation	induced lysis	–	–	induce ADCC	did not induce release of significant IFN-γ levels	–	–
